In US20080312435A1, “Imine Compound” (TAISHO PHARMACEUTICAL CO., LTD., priority 2004, published 2008):

How the values were obtained:
human CB2 receptor [1] = target: T1, human CB2 receptor (Homo sapiens, UniProt P34972); experiment: Human CB2 receptor binding inhibition test ([3H]CP-55,940, CHO membrane fractions); details: [3H]CP-55,940, membrane fractions of CHO cells stably expressing human CB2 receptor, 25° C., 2 hours; read-out: CB2 IC50 (Inhibition of binding to human CB2 receptor)
T1 construct: expressed in transfected cells
T1 sequence (P34972 whole entry): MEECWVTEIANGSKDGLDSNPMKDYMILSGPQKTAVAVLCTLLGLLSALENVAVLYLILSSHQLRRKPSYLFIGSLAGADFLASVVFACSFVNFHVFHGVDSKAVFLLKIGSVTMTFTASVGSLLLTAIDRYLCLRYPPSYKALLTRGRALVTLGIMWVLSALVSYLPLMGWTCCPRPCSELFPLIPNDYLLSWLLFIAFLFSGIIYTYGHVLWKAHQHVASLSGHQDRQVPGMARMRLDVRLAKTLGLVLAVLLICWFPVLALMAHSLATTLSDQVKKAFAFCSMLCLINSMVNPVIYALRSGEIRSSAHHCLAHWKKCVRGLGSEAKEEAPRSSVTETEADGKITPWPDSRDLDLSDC
In short: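 Membranes from CHO-DHFR(−) cells stably expressing human CB2 used for [3H]CP-55,940 binding; filter-bound radioactivity counted by scintillation after washes with 0.1% BSA buffer. Nonspecific binding defined with 2.0 μM CP-55,940; IC50 for inhibition of specific binding.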

[2] = system: Jcl: ICR-series male mice; experiment: Writhing test with acetic acid in mouse; type: in vivo; details: orally administered 30 mg/kg, acetic acid i.p. one hour after administration
Description: Writhing Test with Acetic Acid in Mouse
This test was performed in accordance with the method of Futaki N et al. (Gen Pharmacol. 24(1):105-110 (1993). A test compound suspended in a 5% gum Arabic solution was orally administered to Jcl: ICR-series male mice (5 weeks old). One hour after the administration of the test compound, a 0.9% aqueous acetic acid solution was intraperitoneally administered. Five minutes after the administration, the number of abdomen stretch movements (pain-related behavior) were counted for 10 minutes. Only the 5% gum Arabic solution was orally administered to the control group. A pain-related behavior inhibition rate (%) was obtained based on the following equation.

human CB2 receptor [3] = target: T1, human CB2 receptor; experiment: Test for GTPγS binding via human CB2 receptor; type: biochemical; details: human CB2 receptor CHO membrane fractions; read-out: EC50 value (effective concentration exhibiting 50% activity), GTPγS binding
Description: Test for GTPγS Binding Via Human CB2 Receptor
The CHO cells capable of stably expressing the human CB2 receptor were prepared in the same manner as in Experimental Example 1.

Balb/c male mice = experiment: Test for edema on ear in mouse (PMA-induced); type: in vivo; details: 1 mg per murine ear, PMA 0.8 μg, measured five hours later
Description: Test for Edema on Ear in Mouse
Using Balb/c male mice (5 weeks old), a test compound dissolved in acetone was applied in an amount of 20 μL to the inside the ear. Ten minutes after the application of the test compound, an acetone solution (20 μL) containing 0.8 μg of PMA (phorbol 12-myristate 13-acetate) was applied. Five hours later, the thickness (hyperplasia) of the ear was measured by a dial sickness gauge. Acetone alone was applied to the control group. The inhibition rate (%) of edema on the ear was calculated based on the following equation.

human CB1 receptor [4] = target: T2, human CB1 receptor (Homo sapiens, UniProt P21554); experiment: Human CB1 receptor binding inhibition test; details: CHO-DHFR(−) cells stably expressing human CB1 receptor, same manner as Experimental Example 1
T2 construct: expressed in transfected cells
T2 sequence (P21554 whole entry): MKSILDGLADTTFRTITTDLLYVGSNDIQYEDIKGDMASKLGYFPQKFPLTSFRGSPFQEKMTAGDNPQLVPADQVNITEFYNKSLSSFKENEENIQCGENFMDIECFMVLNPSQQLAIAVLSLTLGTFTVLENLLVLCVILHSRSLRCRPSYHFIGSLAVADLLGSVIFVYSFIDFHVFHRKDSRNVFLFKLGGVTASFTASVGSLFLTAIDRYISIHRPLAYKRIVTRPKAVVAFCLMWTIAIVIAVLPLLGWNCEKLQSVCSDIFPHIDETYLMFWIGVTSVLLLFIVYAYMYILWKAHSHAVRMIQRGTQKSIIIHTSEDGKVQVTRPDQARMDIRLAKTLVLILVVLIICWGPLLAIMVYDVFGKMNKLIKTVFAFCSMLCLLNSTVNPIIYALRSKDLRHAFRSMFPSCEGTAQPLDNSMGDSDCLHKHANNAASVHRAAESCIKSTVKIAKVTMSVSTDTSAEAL
Description: Human CB1 Receptor Binding Inhibition Test
The CHO-DHFR(−) cells capable of stably expressing a CB1 receptor were prepared in the same manner as in Experimental Example 1. The binding test to the human CB1 receptor was performed to obtain 50% inhibitory concentration (IC50 value) of a test compound.

human CB1 receptor [5] = target: T2, human CB1 receptor; experiment: Test for GTPγS binding via human CB1 receptor; type: biochemical; details: human CB1 receptor CHO membrane fractions; maximum activity of each compound regarded as 100%; read-out: EC50 value (effective concentration exhibiting 50% activity), [35S]GTPγS binding
Description: Test for GTPγS Binding Via Human CB1 Receptor
CHO cells capable of stably expressing the human CB1 receptor were prepared in the same manner as in Experimental Example 2. The membrane fractions thereof were incubated together with a test compound in an assay buffer [50 mM Tris-HCl (pH 7.4), 2.5 mM EDTA, 5 mM MgCl2, 3 μM GDP (manufactured by SIGMA), 30 μg/ml Saponin (manufactured by SIGMA)] containing 0.2% bovine serum albumin at 30° C. for 30 minutes. Thereafter, 0.1 nM [^35S]GTPγS (manufactured by Perkin Elmer) was added to the buffer, incubation was performed at 30° C. for 30 minutes. The resultant solution was filtrated by a glass filter GF/C and washed. Thereafter, radioactivity on the glass filter was measured by a liquid scintillation counter. The nonspecific binding was measured […].

SD:IGS-series male rats = experiment: Neuropathic pain test in rat (partial sciatic nerve clipping, von Frey filament); type: in vivo; details: oral administration 3, 10 and 30 mg/kg, one hour after administration, FIG. 1
Description: Neuropathic Pain Test in Rat
Using SD:IGS-series male rats (5 weeks old), neuropathic pain model were prepared by partially clipping the sciatic nerve of the femoral region in accordance with the method of Seltzer et al. (SeltzerZ; Pain. 43(2):205-218 (1990)). When the plantar surface of the paw on the affected side was stimulated by touching with a von Frey filament(s) (nylon fiber for use in a touch test: North Coast Medical, Inc.), the pain threshold (load (g) applied to the filament when an animal responds to touch stimulation) was measured. The test compound was suspended in a 5% gum Arabic solution and administered in a dose of 0 mg/kg, 3 mg/kg, 10 mg/kg and 30 mg/kg. One hour after the administration, pain threshold (g) was measured.

COc1ccc(C(F)(F)F)cc1C(=O)/N=c1\cc(C(C)(C)C)sn1CC1CC1 [compound 59]
IC50 (human CB2 receptor [1]): 7.2 nM | pain-related behavior inhibition rate [2]: 44.8% | melting point: 95 to 97 °C

COc1ccc(C(F)(F)F)cc1C(=O)/N=c1\sc(C(C)(C)C)c(C)n1CC1CC1 [compound 267]
IC50 (human CB2 receptor [1]): 1.1 nM | EC50 (human CB2 receptor [3]): 0.4 nM | pain-related behavior inhibition rate [2]: 59.9% | inhibition rate of edema on the ear (Balb/c male mice): 84% | melting point: 175 to 177 °C

Cn1c(C(C)(C)C)c/c(=N\C(=O)c2cccc(C(F)(F)F)c2F)n1CC1CC1 [compound 474, N-(5-t-butyl-2-cyclopropylmethyl-1,2-dihydro-1-methylpyrazol-3-ylidene)-2-fluoro-3-(trifluoromethyl)benzamide]
IC50 (human CB2 receptor [1]): 4.9 nM | EC50 (human CB2 receptor [3]): 2.3 nM | pain-related behavior inhibition rate [2]: 61.9% | inhibition rate of edema on the ear (Balb/c male mice): 37%

Cc1cccc(C(=O)/N=c2\sc(C(C)(C)C)c(C)n2CC2CC2)c1Br [compound 247]
IC50 (human CB2 receptor [1]): 0.3 nM | IC50 (human CB1 receptor [4]): 3 nM | EC50 (human CB1 receptor [5]): 33 nM | pain-related behavior inhibition rate [2]: 93.0% | melting point: 142 to 144 °C

O=C(/N=c1\ccccn1CC1CC1)c1cccc(C(F)(F)F)c1F [compound 9]
IC50 (human CB2 receptor [1]): 11.3 nM | EC50 (human CB2 receptor [3]): 23.7 nM | melting point: 58.5 to 59 °C

CC(C)(C)c1nn(CC2CC2)/c(=N/C(=O)c2nccc3ccccc23)s1 [compound 510]
IC50 (human CB2 receptor [1]): 13.2 nM | pain-related behavior inhibition rate [2]: 19.6% | melting point: 89 to 90 °C

Cc1c(C(C)(C)C)s/c(=N\C(=O)c2cccc(C(F)(F)F)c2)n1CC1CC1 [compound 184]
IC50 (human CB2 receptor [1]): 12 nM | EC50 (human CB2 receptor [3]): 9.8 nM | pain threshold (SD:IGS-series male rats): increased pain threshold in a dose depending manner | inhibition rate of edema on the ear (Balb/c male mice): 65%

Cc1cccc(C(=O)/N=c2\sc(C(C)(C)C)c(C)n2CC2CC2)c1I [compound 249]
IC50 (human CB2 receptor [1]): 0.4 nM | IC50 (human CB1 receptor [4]): 2 nM | EC50 (human CB1 receptor [5]): 19 nM | melting point: 149 to 151 °C

Cc1c(C(C)(C)C)s/c(=N\S(=O)(=O)c2ccccc2C(F)(F)F)n1CC1CC1 [compound 411]
IC50 (human CB2 receptor [1]): 8.7 nM | pain-related behavior inhibition rate [2]: 49.0%

Cc1c(C(C)(C)C)s/c(=N\C(=O)c2c(Cl)ccc3cc(Cl)cnc23)n1CC1CC1 [compound 327]
IC50 (human CB2 receptor [1]): 3.6 nM | IC50 (human CB1 receptor [4]): 55 nM | melting point: 172 to 174 °C

Cc1c(C(C)(C)C)s/c(=N\C(=O)c2c(F)cccc2F)n1CC1CC1 [compound 223]
IC50 (human CB2 receptor [1]): 2 nM | IC50 (human CB1 receptor [4]): 168 nM | melting point: 123 to 124 °C

CC(C)(C)c1c/c(=N\C(=O)c2cccc(C(F)(F)F)c2F)n(CC2CC2)s1 [compound 56]
IC50 (human CB2 receptor [1]): 0.8 nM | IC50 (human CB1 receptor [4]): 294 nM | melting point: 85 to 87 °C
